The source of these data is US6204026A, “Detection of M. tuberculosis complex via reverse transcriptase SDA” (priority 1997, dated 2001).

SMILES strings stand for the structures. A value given as a limit tells only on which side of the number the result lay.

This test deals with M. tuberculosis. It counts as cell-based, Mycobacterium tuberculosis.

Turning to `NNC(=O)c1ccncc1` [INH, Isoniazid], the “time of exposure within which changes in α-antigen mRNA were detected” value was at most 24 h.

As to `CO[C@H]1/C=C/O[C@@]2(C)Oc3c(C)c(O)c4c(O)c(c(/C=N/N5CCN(C)CC5)c(O)c4c3C2=O)NC(=O)/C(C)=C\C=C\[C@H](C)[C@H](O)[C@@H](C)[C@@H](O)[C@@H](C)[C@H](OC(C)=O)[C@@H]1C` [RIF, rifampin], the “decline in detectable α-antigen mRNA, compared with INH-treated cultures” value is reported as “more rapid” and the “time of exposure within which changes in α-antigen mRNA were detected” value is at most 24 h.
